In article PMC3503449 (Breast cancer research and treatment, 2008):

Molecular target: estrogen receptor α (ERα) (Homo sapiens, UniProt P03372)
Assay: ERE-luciferase reporter, antagonism of EXE-induced ER activity
Type: cell-based

estrogen receptor α (ERα), sequence (P03372 whole entry): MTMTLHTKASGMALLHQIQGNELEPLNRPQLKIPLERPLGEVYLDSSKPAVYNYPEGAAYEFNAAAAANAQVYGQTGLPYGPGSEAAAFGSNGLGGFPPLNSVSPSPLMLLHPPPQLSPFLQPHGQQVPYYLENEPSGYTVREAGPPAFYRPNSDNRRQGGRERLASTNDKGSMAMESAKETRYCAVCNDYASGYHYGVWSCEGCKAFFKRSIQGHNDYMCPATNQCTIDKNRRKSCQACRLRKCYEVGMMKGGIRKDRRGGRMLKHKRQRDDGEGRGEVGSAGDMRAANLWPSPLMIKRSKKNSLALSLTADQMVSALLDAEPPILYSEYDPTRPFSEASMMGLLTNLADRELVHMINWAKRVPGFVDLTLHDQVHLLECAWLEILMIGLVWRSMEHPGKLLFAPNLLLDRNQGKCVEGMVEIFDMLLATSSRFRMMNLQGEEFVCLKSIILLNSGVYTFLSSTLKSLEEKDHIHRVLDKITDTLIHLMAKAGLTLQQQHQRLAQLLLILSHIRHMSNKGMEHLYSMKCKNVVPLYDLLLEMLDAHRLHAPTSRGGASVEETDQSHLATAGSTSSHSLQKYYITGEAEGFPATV

C[C@]12CC[C@@H]3c4ccc(O)cc4C[C@@H](CCCCCCCCC[S+]([O-])CCCC(F)(F)C(F)(F)F)[C@H]3[C@@H]1CC[C@@H]2O (stereo partly shown) [ICI, ICI 182780]
ERE-luciferase reporter, antagonism of EXE-induced ER activity: ER activity was inhibited using the pure ER antagonist ICI
